Type in all cases: biochemical
Test [1] concerns the target T1, Bacillus stearothermophilus lactate dehydrogenase loop exchange mutant SL2 (short loop) (Geobacillus stearothermophilus, UniProt P00344, A222G/A223G/C81T, form not given).
T1 construct: purified; +/- FBP
The test is described as follows: Steady-state kinetics, NADH-dependent reduction of 2-oxo acids (A340). The note with it: 25° C., pH 6. How it is done: (§1) Each pair of overlapping oligonucleotides (20 μM of each) were subjected to 30 cycles of annealing and extension (94° C. for 1 minute, cool to 45° C. for 2 minutes, 45° C. for 1 minute, heat to 72° C. in 1 minute, 72° C. for 1 minute in 50 μl containing 0.05M KCl , 10 mM Tris pH 8.3, 1.5 mM MgCl2, 0.01% gelatin), 200 μM of each dNTP and 2.5 units TAQ DNA polymerase). The double-stranded DNA product was purified and then cut with SacII and XbaI before ligating it into the plasmid pLDHrs cut with the same enzymes. The ligated products were restricted with MluI to cleave wild-type plasmid pLDHrs.
(§2) Overnight cultures (11) were centrifuged and the packed cells were resuspended in 50 mM triethanolamine, pH 6.0. The cells were sonicated and the debris was removed by centrifugation. The protein in the supernatant was precipitated by the addition of 65% ammonium sulphate. The precipitate was spun down and resuspended in 50 mM triethanolamine, pH 6.0 and dialysed against the same buffer. After dialysis, NADH and FBP were added to the protein to final concentrations of 5 mM and 10 mM before loading onto an oxamate Sepharose column which had been pre-equilibrated with 50 mM triethanoloamine, pH 6.0, 3 mM NADH and 5 mM FBP. After washing off unbound protein with column buffer mutant LDH was eluted with 50 mM triethanolamine, pH 9.0, 0.3 M NaCl. The elutant was precipitated with 65% ammonium sulphate and then resuspended in and dialysed against 50 mM triethanolamine, pH 7.5. The protein was then loaded onto a Q-Sepharose Fast Flow column and eluted with a salt gradient. LDH eluted at a concentration of 0.25M NaCl. For the double glycine mutant enzyme, the first chromatography procedure with oxamate Sepharose was replaced by chromatography on Blue Sepharose -F3GA, otherwise the procedure was essentially the same. All proteins were judged to be greater than 98% pure from the intensity of Coomassie blue staining on an SDS Phast gel (Pharmacia). The yield of protein was usually 0.2 g/l of original broth.
(§3) Steady-state measurements were made by following the reduction in absorbance at 340 nm in the NADH/NAD^+ conversion. All assays were at 25° C. in the buffer Bis-Tris, pH 6, (20 mM), containing KC1 (50 mM) and when used fructose-1,6-bisphosphate at 5 mM. Protein concentration was determined from the absorbance at 280 nm using the value of 0.91 for 1 mg/ml protein in 1 cm path and an Mr of 33,000.
(§4) The specific substrates used in the evaluations are shown in the left column of Table 4. In Table 4, "235/6GG" denotes the mutant enzyme formed by substituting GlyGly for AlaAla at the 235-236 positions of the enzyme (Wilks et al., Biochemistry 1990, 29, 8587-8591), and "WTrs" denotes a mutant derived from the wild-type strain as shown in FIG. 1 of Wilks et al., Biochemistry 1992, 31, 7802-7806.

The target in test [2] is T2, Bacillus stearothermophilus lactate dehydrogenase loop exchange mutant SL1 (short loop) (Geobacillus stearothermophilus, UniProt P00344, A222G/A223G/C81T, form not given).
T2 construct: purified; +/- FBP
T2 sequence (P00344 whole entry C81T/A222G/A223G, form open): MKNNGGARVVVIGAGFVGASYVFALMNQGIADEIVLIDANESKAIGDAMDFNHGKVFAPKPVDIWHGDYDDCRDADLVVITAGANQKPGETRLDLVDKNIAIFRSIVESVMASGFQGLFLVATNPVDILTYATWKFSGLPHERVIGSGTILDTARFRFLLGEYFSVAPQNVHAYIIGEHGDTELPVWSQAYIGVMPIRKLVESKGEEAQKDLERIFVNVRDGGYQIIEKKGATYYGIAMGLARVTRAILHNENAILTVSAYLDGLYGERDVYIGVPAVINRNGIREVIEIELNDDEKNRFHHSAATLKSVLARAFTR
Described as above. The note with it: 25° C., pH 6. Here is the method:
as §1, §2, §3, §4

Test [3] concerns Bacillus stearothermophilus lactate dehydrogenase loop exchange mutant BIG LOOP (loop SEQ ID No: 10). Described as above. The note with it: 25° C., pH 6. Here is the method:
as §1, §2, §3, §4

The target of test [4] is T3, Bacillus stearothermophilus lactate dehydrogenase, wild type, SEQ ID NO: 3 (Geobacillus stearothermophilus, UniProt P00344).
T3 construct: made in house; host or cells: E. coli
T3 sequence (P00344 whole entry): as the sequence (P00344 whole entry C81T/A222G/A223G, form open) above, with T81C, G222A, G223A counted along it
Described as above. The note with it: estimate, steady state kinetic measurements. How it is done: as §2, with “For the double glycine mutant enzyme, the first chromatography procedure with oxamate Sepharose was replaced by chromatography on Blue Sepharose -F3GA, otherwise the procedure was essentially the same. All proteins were judged to be greater than 98% pure from the intensity of Coomassie blue staining on an SDS Phast gel (Pharmacia). The yield of protein was usually 0.2 g/l of original broth.” left out
Steady-state measurements were made by following the reduction in absorbance at 340 nm in the NADH/NAD^+ conversion. […] Protein concentration was determined from the absorbance at 280 nm using the value of 0.91 for 1 mg/ml protein in 1 cm path and an Mr of 33,000. […]

In test [5] the target is T4, Bacillus stearothermophilus lactate dehydrogenase mutant MVS/GG (MetValSer for GlnLysPro at 102-105, GlyGly for AlaAla at 235-236) (Geobacillus stearothermophilus, UniProt P00344, A222G/A223G/K87V/P88S/Q86M).
T4 construct: made in house; host or cells: E. coli
T4 sequence (P00344 whole entry Q86M/K87V/P88S/A222G/A223G): as the sequence (P00344 whole entry C81T/A222G/A223G, form open) above, with T81C, Q86M, K87V, P88S counted along it
The test can be described thus: Steady state kinetic measurements, reduction of 4-methyl-2-oxo-3-pentenoic acid. Here is the method:
The mutation where alanines at 235,236 are replaced by glycines has been combined with three mutations in the mobile polypeptide loop (residues 98-112), namely […] by methionine, lysine 103 by valine and proline 105 by serine (MVS/GG).
as §3
Reduction of 4-methyl-2-oxo-3-pentenoic acid using MVS/GG (the mutant enzyme formed by substituting MetValSer for GlnLysPro at the 102-105 positions and GlyGly for AlaAla at the 235-236 positions): […]

Consider 5 compounds from patent US5770410A, “Chiral synthesis with modified enzymes” (Genzyme Corporation, priority 1992, dated 1998).

A word on the Km: it is the substrate concentration at which the rate is half of its maximum. As a reminder, the kcat is the maximal rate divided by the concentration of active sites.

T1 sequence (P00344 whole entry C81T/A222G/A223G, form open): as the sequence (P00344 whole entry C81T/A222G/A223G, form open) above

Consider `CC(=O)C(=O)O` [PYRUVATE, pyruvate], for which the figures for the Km in test [1] (+FBP (5 mM)), in test [1] (-FBP) and in test [2] (+FBP (5 mM)) were 0.065 mM, 0.5 mM and 0.08 mM, respectively.
On to `O=C(O)C(=O)CCc1ccccc1` [2-OXO-4-PHENYL BUTANOATE, 2-oxo-4-phenyl butanoic acid], for which the Km was 4 mM in test [1] (+FBP (5 mM)); 4 mM in test [1] (-FBP); 4 mM in test [2] (+FBP (5 mM)); 4 mM in test [2] (-FBP); 7 mM in test [3] (+FBP (5 mM)); 12 mM in test [3] (-FBP). The catalytic constant (kcat) turned out to be 0.2 s⁻¹ in test [1] (+FBP (5 mM)); 0.01 s⁻¹ in test [1] (-FBP); 0.03 s⁻¹ in test [2] (+FBP (5 mM)); 0.002 s⁻¹ in test [2] (-FBP); 1.0 s⁻¹ in test [3] (+FBP (5 mM)); 0.1 s⁻¹ in test [3] (-FBP). In addition, the “kcat /KM” value in test [1] (+FBP (5 mM)) came out at 50 M⁻¹ s⁻¹; in test [1] (-FBP) it was 2.5 M⁻¹ s⁻¹; in test [2] (+FBP (5 mM)), 7.5 M⁻¹ s⁻¹; in test [3] (+FBP (5 mM)), 143 M⁻¹ s⁻¹.
As to `CCCCC(=O)C(=O)O` [KETO CAPROATE, α-ketocaproate], the Km turned out to be 25 mM in test [1] (+FBP (5 mM)), 60 mM in test [1] (-FBP), 16 mM in test [2] (+FBP (5 mM)) and 20 mM in test [2] (-FBP).
For `CC(C)=CC(=O)C(=O)O` [4-methyl-2-oxo-3-pentenoic acid], the turnover in test [4] was 0.03 S^-1; in test [5], 1.2 S^-1.
Regarding `CC(C)CC(=O)C(=O)O` [KETOISO CAPROATE, α-ketoisocaproate], the Km in test [1] (+FBP (5 mM)) was 25 mM; in test [1] (-FBP), 30 mM; in test [2] (+FBP (5 mM)), 20 mM; in test [2] (-FBP) it was 40 mM.
